Legend:
potassium arsenate = compound: O=[As]([O-])(O)O.[K+] [potassium arsenate]; assay: thermal stability z-score vs DMSO; higher = more thermally stabilized by treatment; details: HeLa; arsenate concentration 1 mM
Method: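 Cellular thermal proteome profiling in HeLa cells treated with 1 mM arsenate for 1 h (DMSO pretreatment), heated to ten temperatures (37-66.3 °C). Soluble protein was quantified by TMT mass spectrometry relative to DMSO controls; the thermal stability score was transformed to a z-score; mean of n = 3 experiments.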

lipoamide = compound: NC(=O)CCCCC1CCSS1 [lipoamide]; assay: as above; details: HeLa, lipoamide concentration 100 µM
Method: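 Cellular thermal proteome profiling in HeLa cells. Cells were treated with 100 µM lipoamide for 1 h, with or without 1 mM arsenate for a further 1 h, then heated to ten temperatures (37-66.3 °C), and soluble protein was quantified by TMT mass spectrometry relative to 0.1% DMSO controls. The thermal stability score (sum of log2 fold changes minus the abundance score) was transformed to a z-score; mean of n = 3 experiments.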

[1] = arsenate co-treatment: 1 mM arsenate 1 h
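Also: each temperature applied for 3 min, abundance score taken as mean log2 fold change at the two lowest temperatures, z-score obtained by mean subtraction and division by SD.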

UniProt Q15717, sequence (Q15717 whole entry): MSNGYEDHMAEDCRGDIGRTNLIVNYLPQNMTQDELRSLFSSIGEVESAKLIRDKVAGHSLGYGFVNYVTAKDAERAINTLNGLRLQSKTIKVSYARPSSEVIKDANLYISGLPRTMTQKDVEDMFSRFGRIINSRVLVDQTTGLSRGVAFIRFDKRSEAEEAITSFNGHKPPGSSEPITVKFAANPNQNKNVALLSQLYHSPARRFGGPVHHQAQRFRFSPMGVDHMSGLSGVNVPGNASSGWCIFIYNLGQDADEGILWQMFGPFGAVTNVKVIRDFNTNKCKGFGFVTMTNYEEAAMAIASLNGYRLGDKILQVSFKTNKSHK
UniProt Q9GZU1, sequence (Q9GZU1 whole entry): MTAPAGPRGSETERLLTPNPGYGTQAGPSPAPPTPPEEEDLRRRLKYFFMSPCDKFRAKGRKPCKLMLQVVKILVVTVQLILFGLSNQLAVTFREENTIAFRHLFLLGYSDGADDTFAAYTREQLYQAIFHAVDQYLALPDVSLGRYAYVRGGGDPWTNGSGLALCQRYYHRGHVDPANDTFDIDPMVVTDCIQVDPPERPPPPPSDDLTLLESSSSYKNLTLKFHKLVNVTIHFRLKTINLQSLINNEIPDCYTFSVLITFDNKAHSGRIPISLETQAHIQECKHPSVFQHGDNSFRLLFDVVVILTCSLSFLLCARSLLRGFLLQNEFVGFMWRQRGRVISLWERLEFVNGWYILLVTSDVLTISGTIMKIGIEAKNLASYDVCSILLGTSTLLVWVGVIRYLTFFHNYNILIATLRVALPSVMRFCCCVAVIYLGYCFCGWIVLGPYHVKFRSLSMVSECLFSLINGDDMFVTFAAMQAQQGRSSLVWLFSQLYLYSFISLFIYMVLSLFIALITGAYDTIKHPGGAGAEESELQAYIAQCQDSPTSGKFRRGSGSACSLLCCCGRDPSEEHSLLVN
UniProt Q96BY9, sequence (Q96BY9 whole entry): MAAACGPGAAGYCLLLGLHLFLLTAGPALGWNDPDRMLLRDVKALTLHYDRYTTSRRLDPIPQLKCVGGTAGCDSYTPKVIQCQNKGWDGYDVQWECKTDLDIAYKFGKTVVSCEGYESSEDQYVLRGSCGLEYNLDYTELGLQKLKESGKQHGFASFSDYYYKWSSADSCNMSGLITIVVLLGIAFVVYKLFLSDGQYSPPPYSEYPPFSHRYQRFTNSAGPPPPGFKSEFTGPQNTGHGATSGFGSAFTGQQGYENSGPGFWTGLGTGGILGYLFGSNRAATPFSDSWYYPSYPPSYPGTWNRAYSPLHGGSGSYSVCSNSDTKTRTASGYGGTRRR
UniProt P54578, sequence (P54578 whole entry): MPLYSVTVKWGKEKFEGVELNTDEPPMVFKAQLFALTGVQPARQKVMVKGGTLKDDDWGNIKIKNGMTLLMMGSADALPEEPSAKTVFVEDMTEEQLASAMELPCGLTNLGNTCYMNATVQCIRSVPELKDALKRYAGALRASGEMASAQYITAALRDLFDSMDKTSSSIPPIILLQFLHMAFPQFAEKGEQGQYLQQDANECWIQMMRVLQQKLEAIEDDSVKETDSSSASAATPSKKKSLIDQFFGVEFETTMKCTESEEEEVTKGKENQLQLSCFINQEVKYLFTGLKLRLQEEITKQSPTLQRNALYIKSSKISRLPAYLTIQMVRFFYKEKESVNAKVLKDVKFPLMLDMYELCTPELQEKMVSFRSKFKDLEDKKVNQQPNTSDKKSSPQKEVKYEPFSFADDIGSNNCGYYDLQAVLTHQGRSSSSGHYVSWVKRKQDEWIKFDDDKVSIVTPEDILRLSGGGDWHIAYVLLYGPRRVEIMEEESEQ
UniProt Q14019, sequence (Q14019 whole entry): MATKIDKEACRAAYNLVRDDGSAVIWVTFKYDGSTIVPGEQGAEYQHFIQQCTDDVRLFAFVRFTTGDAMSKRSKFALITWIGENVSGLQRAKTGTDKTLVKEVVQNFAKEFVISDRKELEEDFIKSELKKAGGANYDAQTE
UniProt Q04721, sequence (Q04721 whole entry): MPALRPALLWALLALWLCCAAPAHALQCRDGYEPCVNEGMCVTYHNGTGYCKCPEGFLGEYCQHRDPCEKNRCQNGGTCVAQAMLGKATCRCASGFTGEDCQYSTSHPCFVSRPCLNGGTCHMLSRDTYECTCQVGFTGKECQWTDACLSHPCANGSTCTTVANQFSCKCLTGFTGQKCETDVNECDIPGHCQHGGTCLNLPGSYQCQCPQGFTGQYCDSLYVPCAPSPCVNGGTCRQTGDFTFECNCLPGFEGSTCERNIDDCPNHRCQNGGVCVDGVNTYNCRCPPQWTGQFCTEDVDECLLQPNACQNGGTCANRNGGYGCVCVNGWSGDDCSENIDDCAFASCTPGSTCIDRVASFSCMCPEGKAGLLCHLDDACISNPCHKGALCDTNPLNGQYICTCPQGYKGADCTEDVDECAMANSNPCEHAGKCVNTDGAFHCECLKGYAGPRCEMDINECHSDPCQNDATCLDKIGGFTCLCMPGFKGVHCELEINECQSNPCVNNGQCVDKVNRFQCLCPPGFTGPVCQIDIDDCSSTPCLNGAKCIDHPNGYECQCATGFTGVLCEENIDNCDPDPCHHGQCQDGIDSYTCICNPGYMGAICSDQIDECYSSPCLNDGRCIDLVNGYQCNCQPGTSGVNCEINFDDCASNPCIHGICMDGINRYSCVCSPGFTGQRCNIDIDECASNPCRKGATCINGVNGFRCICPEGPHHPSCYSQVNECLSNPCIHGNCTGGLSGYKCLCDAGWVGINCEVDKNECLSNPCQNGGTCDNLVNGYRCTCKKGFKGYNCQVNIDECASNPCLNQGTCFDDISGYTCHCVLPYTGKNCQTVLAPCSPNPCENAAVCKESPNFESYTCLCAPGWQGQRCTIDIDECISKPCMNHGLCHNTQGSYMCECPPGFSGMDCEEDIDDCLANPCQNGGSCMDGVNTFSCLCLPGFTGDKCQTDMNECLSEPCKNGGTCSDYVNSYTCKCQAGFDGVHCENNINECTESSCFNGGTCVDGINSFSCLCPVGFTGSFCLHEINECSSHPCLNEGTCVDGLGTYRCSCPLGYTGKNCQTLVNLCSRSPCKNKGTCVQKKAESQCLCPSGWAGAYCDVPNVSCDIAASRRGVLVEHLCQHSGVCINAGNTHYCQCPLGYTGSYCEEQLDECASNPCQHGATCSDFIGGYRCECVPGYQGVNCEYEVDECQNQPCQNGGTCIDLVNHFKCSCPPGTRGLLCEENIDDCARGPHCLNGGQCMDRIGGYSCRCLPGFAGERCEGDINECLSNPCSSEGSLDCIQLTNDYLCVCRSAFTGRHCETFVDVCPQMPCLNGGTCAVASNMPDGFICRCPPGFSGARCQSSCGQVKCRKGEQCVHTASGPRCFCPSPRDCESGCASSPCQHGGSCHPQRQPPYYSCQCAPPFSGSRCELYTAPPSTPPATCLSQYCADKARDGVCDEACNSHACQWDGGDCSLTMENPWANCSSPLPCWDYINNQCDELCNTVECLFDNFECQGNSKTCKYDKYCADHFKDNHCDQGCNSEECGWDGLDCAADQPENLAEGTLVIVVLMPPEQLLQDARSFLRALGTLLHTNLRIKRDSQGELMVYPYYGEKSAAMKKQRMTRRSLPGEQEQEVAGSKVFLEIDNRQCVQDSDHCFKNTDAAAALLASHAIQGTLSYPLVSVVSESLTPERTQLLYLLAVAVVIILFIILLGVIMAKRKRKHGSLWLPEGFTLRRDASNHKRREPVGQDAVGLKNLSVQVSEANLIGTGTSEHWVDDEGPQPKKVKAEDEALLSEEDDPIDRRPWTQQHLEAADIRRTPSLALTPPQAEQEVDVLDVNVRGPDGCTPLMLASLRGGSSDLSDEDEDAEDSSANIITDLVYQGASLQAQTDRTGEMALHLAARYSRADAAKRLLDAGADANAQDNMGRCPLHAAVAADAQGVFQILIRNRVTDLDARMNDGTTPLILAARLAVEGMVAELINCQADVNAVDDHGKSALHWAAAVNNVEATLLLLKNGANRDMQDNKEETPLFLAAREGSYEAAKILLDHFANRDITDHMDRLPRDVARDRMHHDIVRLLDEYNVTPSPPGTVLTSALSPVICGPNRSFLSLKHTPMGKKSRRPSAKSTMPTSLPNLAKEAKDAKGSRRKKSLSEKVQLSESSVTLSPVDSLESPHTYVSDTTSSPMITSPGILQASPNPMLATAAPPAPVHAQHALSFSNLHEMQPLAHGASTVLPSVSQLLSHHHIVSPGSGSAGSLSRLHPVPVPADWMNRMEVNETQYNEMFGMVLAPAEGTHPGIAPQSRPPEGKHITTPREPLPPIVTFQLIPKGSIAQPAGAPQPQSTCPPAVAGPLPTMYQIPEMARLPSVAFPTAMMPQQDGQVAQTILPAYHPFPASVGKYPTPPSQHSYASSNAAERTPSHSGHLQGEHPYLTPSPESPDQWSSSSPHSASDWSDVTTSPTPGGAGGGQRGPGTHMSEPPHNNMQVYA
UniProt Q8N0Z6, sequence (Q8N0Z6 whole entry): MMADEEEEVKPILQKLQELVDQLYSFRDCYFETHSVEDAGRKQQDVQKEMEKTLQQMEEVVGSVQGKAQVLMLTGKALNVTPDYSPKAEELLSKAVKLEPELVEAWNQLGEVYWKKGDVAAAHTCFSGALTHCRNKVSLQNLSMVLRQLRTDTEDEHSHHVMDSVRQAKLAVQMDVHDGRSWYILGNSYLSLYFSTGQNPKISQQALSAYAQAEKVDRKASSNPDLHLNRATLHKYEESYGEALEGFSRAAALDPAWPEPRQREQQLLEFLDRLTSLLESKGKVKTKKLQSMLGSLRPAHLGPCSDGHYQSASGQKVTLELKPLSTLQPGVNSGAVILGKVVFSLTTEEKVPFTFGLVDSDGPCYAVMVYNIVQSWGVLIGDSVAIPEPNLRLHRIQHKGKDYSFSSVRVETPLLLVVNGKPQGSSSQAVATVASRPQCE
UniProt Q9H081, sequence (Q9H081 whole entry): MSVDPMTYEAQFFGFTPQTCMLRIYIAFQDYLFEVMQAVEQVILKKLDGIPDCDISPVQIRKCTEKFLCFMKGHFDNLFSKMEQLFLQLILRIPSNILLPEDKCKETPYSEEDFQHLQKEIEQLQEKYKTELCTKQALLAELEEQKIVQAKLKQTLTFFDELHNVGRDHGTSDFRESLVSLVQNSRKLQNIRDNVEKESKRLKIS

Target | thermal stability z-score (potassium arsenate) | thermal stability z-score (lipoamide; [1]) | thermal stability z-score (lipoamide; arsenate co-treatment: none)
C19ORF52 (UniProt Q9BSF4) | 0.873 | 0.441 | 0.873
SLC25A28 (UniProt Q96A46) | 1.81 | 0.65 | 0.529
GGA2 (UniProt Q9UJY4) | -0.335 | -0.076 | -0.0378
COTL1 (UniProt Q14019) | 0.699 | 0.575 | 1.02
PASK (UniProt Q96RG2) | -0.353 | 0.103 | 0.0323
AGAP3 (UniProt Q96P47) | -0.25 | 0.0887 | -0.377
SARAF (UniProt Q96BY9) | 0.00539 | -0.355 | -0.0205
MAVS (UniProt Q7Z434) | -0.963 | 0.0772 | 0.294
USP14 (UniProt P54578) | -0.0718 | 0.406 | -0.143
BASP1 (UniProt P80723) | -0.142 | 0.861 | 0.592
PIN1 (UniProt Q13526) | 0.757 | 0.355 | 0.305
NDUFB8 (UniProt O95169) | 0.119 | 0.714 | 1.42
C5ORF51 (UniProt A6NDU8) | -0.796 | -1 | -0.695
MIS12 (UniProt Q9H081) | 0.00203 | -0.0248 | -0.061
EIF4E2 (UniProt O60573) | -1.43 | -0.568 | -0.113
CSTF1 (UniProt Q05048) | -1.45 | -0.533 | 0.0516
MCOLN1 (UniProt Q9GZU1) | -1.27 | -0.724 | -0.559
NOTCH2 (UniProt Q04721) | -0.309 | -1.45 | -1.57

Target | thermal stability z-score (potassium arsenate) | thermal stability z-score (lipoamide; [1]) | thermal stability z-score (lipoamide; arsenate co-treatment: none)
TMEM70 (UniProt Q9BUB7) | 0.259 | 0.461 | -0.347
BTAF1 (UniProt O14981) | -0.192 | 0.085 | 0.175
HEBP2 (UniProt Q9Y5Z4) | 0.0122 | 0.891 | 0.694
MICAL3 (UniProt Q7RTP6) | 0.0242 | 0.231 | 0.334
STAT2 (UniProt P52630) | 0.171 | -0.0423 | 0.0157
HDGFRP2 (UniProt Q7Z4V5) | 0.126 | 0.576 | 0.499
NUBP1 (UniProt P53384) | -0.302 | -0.23 | 0.385
ELAVL1 (UniProt Q15717) | -0.765 | -0.0114 | 0.173
AUH (UniProt Q13825) | 0.0655 | -0.0558 | 0.0366
STRN (UniProt O43815) | 0.345 | 0.402 | 0.602
TTC5 (UniProt Q8N0Z6) | -0.0548 | -0.0841 | 0.0677
KIF5B (UniProt P33176) | 1.17 | 0.397 | 0.256
PBK (UniProt Q96KB5) | 0.533 | -0.583 | -0.307
SIPA1 (UniProt Q96FS4) | 0.319 | -0.295 | 0.0519
TGOLN2 (UniProt O43493) | -0.275 | 0.152 | 0.0237
DMD (UniProt P11532) | -0.176 | 0.0264 | -0.124
PPP3CB (UniProt P16298) | -0.199 | -0.386 | -2.04
